Reference: patent US20190002448A1, “SUBSTITUTED BENZOFURANYL AND BENZOXAZOLYL COMPOUNDS AND USES THEREOF” (Karyopharm Therapeutics Inc., priority 2015, published 2019)

How the values were obtained:
Format in all cases: cell-based
3T3 cells = test: MTT cell proliferation assay, 3T3 cells; settings: Mus musculus, NIH3T3; 3T3 fibroblast cells; approximately 64-72 hours incubation
Experimental: (§1) The MTT cell proliferation assay was used to study the cytotoxic properties of the compounds. The assay was performed according to the method described by Roche Molecular Biochemicals, with minor modifications. The assay is based on the cleavage of the tetrazolium salt, MTT, in the presence of an electron-coupling reagent. The water-insoluble formazan salt produced must be solubilized in an additional step. Cells grown in a 96-well tissue culture plate were incubated with the MTT solution for approximately 4 hours. After this incubation period, a water-insoluble formazan dye formed. After solubilization, the formazan dye was quantitated using a scanning multi-well spectrophotometer (ELISA reader). […] The cells were seeded at 5,000-10,000 cells in each well of 96-well plate in 100 μL of fresh culture medium and were allowed to attach overnight. The stock solutions of the compounds were diluted in 100 μL cell culture medium to obtain eight concentrations of each test compound, ranging from 1 nM to 30 μM. […] All optical densities were measured at 490 nm using a Vmax Kinetic Microplate Reader (Molecular Devices). In most cases, the assay was performed in duplicate and the results were presented as a mean percent inhibition to the negative control±SE. The following formula was used to calculate the percent of inhibition: Inhibition (%)=(1−(ODo/OD))×100.
(§2) The compounds were tested against MS751, Z138 and 3T3 cells. The MS751 cell line is derived from a metastasis to lymph node of human cervix from a patient diagnosed with squameous cell carcinoma of the cervix. The Z138 cell line is a mature B-cell acute lymphoblastic leukemia cell line derived from a patient with chronic lumphocytic leukemia. 3T3 cells are standard fibroblast cells; they were originally isolated from Swiss mouse embryo tissue.

MS751 cells = test: MTT cell proliferation assay, MS751 cells; settings: Homo sapiens; MS751 cervical squamous cell carcinoma cells; approximately 64-72 hours incubation; read-out: MTT Assay IC50 MS-751
Experimental: as §1, §2

Z138 cells = test: MTT cell proliferation assay, Z138 cells; settings: Homo sapiens, Z-138, approximately 64-72 hours incubation
Experimental: as §1, §2

Measured: IC50

Nc1ccc(/C=C/C(=O)NCc2cc3cc(-c4ccc(C(=O)N5CCC(F)(F)CC5)cc4)cc(Oc4cccc(F)c4)c3o2)cn1 [Compound 101, (E)-3-(6-aminopyridin-3-yl)-N-((5-(4-(4,4-difluoropiperidine-1-carbonyl)phenyl)-7-(3-fluorophenoxy)benzofuran-2-yl)methyl)acrylamide]
100 to 5000 nM: all assays above

Nc1ccc(/C=C/C(=O)NCc2cc3cc(-c4ccc(C(=O)N5CCC(F)(F)CC5)cc4)cc(OC4CCC4)c3o2)cn1 [Compound 104, (E)-3-(6-aminopyridin-3-yl)-N-((7-cyclobutoxy-5-(4-(4,4-difluoropiperidine-1-carbonyl)phenyl)benzofuran-2-yl)methyl)acrylamide]
100 to 5000 nM: all assays above

Nc1ccc(/C=C/C(=O)NCc2cc3cc(-c4ccc(C(=O)N5CCC(F)(F)CC5)cc4F)cc(Oc4cccc(F)c4)c3o2)cn1 [Compound 102, (E)-3-(6-aminopyridin-3-yl)-N-((5-(4-(4,4-difluoropiperidine-1-carbonyl)-2-fluorophenyl)-7-(3-fluorophenoxy)benzofuran-2-yl)methyl)acrylamide]
100 to 5000 nM: all assays above

Nc1ccc(/C=C/C(=O)NCc2cc3cc(-c4ccc(C(=O)N5CCC(F)(F)CC5)cc4)cc(Oc4ccc(F)cc4)c3o2)cn1 [Compound 100, (E)-3-(6-aminopyridin-3-yl)-N-((5-(4-(4,4-difluoropiperidine-1-carbonyl)phenyl)-7-(4-fluorophenoxy)benzofuran-2-yl)methyl)acrylamide]
100 to 5000 nM: all assays above

Nc1ccc(/C=C/C(=O)NCc2cc3cc(-c4ccc(C(=O)N5CCC(F)(F)CC5)cc4F)cc(OC4CCC4)c3o2)cn1 [Compound 105, (E)-3-(6-aminopyridin-3-yl)-N-((7-cyclobutoxy-5-(4-(4,4-difluoropiperidine-1-carbonyl)-2-fluorophenyl)benzofuran-2-yl)methyl)acrylamide]
100 to 5000 nM: all assays above

Nc1ccc(/C=C/C(=O)NCc2cc3cc(-c4ccc(C(=O)N5CCC(F)(F)CC5)cc4F)cc(Oc4ccc(F)cc4)c3o2)cn1 [Compound 103, (E)-3-(6-aminopyridin-3-yl)-N-((5-(4-(4,4-difluoropiperidine-1-carbonyl)-2-fluorophenyl)-7-(4-fluorophenoxy)benzofuran-2-yl)methyl)acrylamide]
100 to 5000 nM: all assays above
